# Reference: US9611253B2, “Solid forms comprising optically active pyrazolylaminoquinazoline, compositions thereof, and uses therewith” (AMBIT BIOSCIENCES CORPORATION, priority 2012, dated 2017)
# Key:
# [1] = Stability of esylate salt in water and aqueous ethanol (dissociation to free base); format: physicochemical; conditions: in water and aqueous ethanol solutions
# Description: Spontaneous precipitation from the aqueous solution afforded Compound 6 as free base; a new crystalline XRPD pattern was observed (See FIG. 38). The free base of Compound 6 was partially precipitated upon water addition to the ethanol solution and was further recovered by evaporation of the ethanol: water solution. These observations indicate the esylate salt is unstable in water and aqueous ethanol due to dissociation.
# A new crystalline XRPD pattern designated as Form A of the free base of Compound 6 was observed from precipitation in ethanol with water (antisolvent) when amorphous ethanesulfonate salt of Compound 6 was used. (FIG. 38, top pattern). Summary of the data obtained for Form A of the free base is shown below in Table 16. […] The Compound 6 free base was recovered by further evaporation of the aqueous ethanol solution. […] These observations indicate the esylate salt is unstable due to dissociation in water and aqueous ethanol solutions.
# [2] = Solubility in ethanol observed during salt formation; format: physicochemical
# Procedure: To a 2-L Morton flask equipped with a heating mantle, thermocouple, condenser and mechanical stirrer was charged (4-fluorophenyl)(4-((5-methyl-1H-pyrazol-3-yl)amino)quinazolin-2-yl)methanol free base (40.20 g, 115 mmol, 1.0 equiv.). Ethanol (1.6 L) was added and the suspension was stirred and heated to reflux (78° C., internal temperature) until dissolution of the suspension was observed. Ethanesulfonic acid (9.4 mL, 115 mmol, 1.0 equiv.) was charged to the resulting yellow solution. Reflux was maintained for 1 hour, then heating was discontinued and the reaction was allowed to cool to room temperature and stirred overnight. Stirring was stopped and the solids were allowed to settle. The reaction was filtered and the initial isolated product (R)-(4-fluorophenyl)(4-((5-methyl-1H-pyrazol-3-yl)amino)quinazolin-2-yl)methanol dried in a vacuum oven (45° C., ˜20 torr) for 3 days to produce 29.69 g, 65 mmol, 56% yield. The supernatant was concentrated and a second crop of the product was obtained and dried as the first to produce 10.52 g, 23 mmol, 20% yield.
# The combined yield for the two crops was 76%. […] Higher yields of salt can be obtained by reducing the amount of ethanol. […]
# [3] = Solubility/crystallization screen of Compound 6 salts (20 mg salt, solvent, heating, then standing)
# Procedure: The resulting solids were analyzed by DSC and portions of each salt were tested for solubility and crystallization from the following solvents:
# 20 mg of salt was charged to a 1-dram screw-top vial. Solvent (enough to cover the solids) was added, the vial was capped and heated (heat gun) to aid dissolution. If no, or partial dissolution was observed, the vial was allowed to cool, additional solvent was added and the process repeated. The solubility was characterized as follows: Soluble (sol): the solids dissolved upon heating, Sparingly soluble (sp): the solids dissolved upon heating after two or more additions of solvent or Insoluble (I): complete dissolution could not be achieved. […] The vials containing solids were filtered and analyzed by DSC.
# [4] = standing 1 h after cooling to room temperature
# [5] = standing 4 d after cooling to room temperature
smiles,measurement,setting,value
CCS(=O)(=O)O [Ethanesulfonic acid],Stability of the salt (dissociation to free base),[1],unstable
same,Solubility in ethanol compared to the free base,[2],higher solubility in ethanol
same,Solubility in EtOH,[3]; Heating,sol
same,Solubility in H2O,[3]; Heating,sol
same,Solubility in IPA,[3]; Heating,sol
same,Solubility in MeOH,[3]; Heating,sol
same,Solubility/crystallization in EtOH,[3]; [4],cryst
same,Solubility/crystallization in H2O,[3]; [4],gels
same,Solubility/crystallization in IPA,[3]; [4],cryst
same,Solubility/crystallization in MeOH,[3]; [4],sol
same,Solubility/crystallization in EtOH,[3]; [5],cryst
same,Solubility/crystallization in IPA,[3]; [5],cryst
same,Solubility/crystallization in MeOH,[3]; [5],sol
